The METLIN SMRT retention time set (Domingo-Almenara et al. 2019)

test: gradient 5% acetonitrile 3 min, to 50% in 2 min, to 85% in 15 min, held 3 min, 100 µL/min; conditions: column: Zorbax Extend-C18 2.1 x 50 mm; eluents: water / acetonitrile, 0.1% formic acid
Procedure, shortened: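 Pure standards were run in mixtures of ~100 molecules by HPLC coupled to a quadrupole time-of-flight mass spectrometer. The column was a Zorbax Extend-C18 (2.1 × 50 mm, 1.8 μm) at 100 μL/min, with water and acetonitrile each containing 0.1% formic acid, in positive and negative ionization mode. Dead and dwell volumes were 40 μL and 900 μL. Retention time was taken from computationally picked adduct peaks, each manually inspected, with data collected over 3 months.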

RP-LC retention time	Structure (SMILES)
581 s	O=C(NCCN1CCCCC1)C1CCN(c2nc3cccnc3s2)CC1
990 s	O=C(CCn1nnc2cc(-c3noc(COc4ccc(F)cc4)n3)ccc21)N1CCCCCC1
693 s	O=C(NCCN1CCC(Cc2ccccc2)CC1)c1ccc2c(c1)NC(=O)C1CCCCN21 (stereo not drawn)
569 s	CCCCN1CCN(C(=O)C2CCCN(c3cnc4nccnc4c3)C2)CC1 (stereo not drawn)
767 s	O=C(c1ccoc1)N1CCN(C(=O)c2nnn3c2COC(c2ccccc2)C3)CC1 (stereo not drawn)
834 s	Cn1c(=O)c(N2CCN(C(=O)c3cc(F)ccc3F)CC2)nc2cccnc21
656 s	Cc1ccc(-c2nccn3cc(C(=O)N4CCN(CC(C)C)CC4)nc23)cc1
672 s	Cc1ccccc1-c1nc(CN2CCN(C(=O)NC3CCCC3)CC2)c(C)o1
748 s	CCn1c(=O)c(N2CCN(S(=O)(=O)c3ccc4c(c3)CCC4)CC2)nc2ccncc21
916 s	Cc1ccc(C)c(C(=O)N2CCCC(COc3ccc(C(=O)NC(C)C)cc3)C2)c1 (stereo not drawn)
1050 s	COc1ccccc1NC(=O)CSc1cc(N2CCN(c3ccccc3OC)CC2)ncn1
575 s	CCC(C)NC(=O)C1CCN(c2cnc(N3CCN(CC)CC3)nc2)CC1 (stereo not drawn)
876 s	O=C(Nc1ccccc1)C1CCCN(S(=O)(=O)c2c[nH]c(C(=O)N3CCCCCC3)c2)C1 (stereo not drawn)
906 s	CCCNC(=O)C1CCN(c2nc3ccc(-c4ccccc4)nc3s2)CC1
807 s	COc1ccc(CN2N=C(C(=O)N3CCOCC3)S(=O)(=O)c3ccccc32)cc1F
816 s	Cc1ccc(NC(=O)NCC(c2cccnc2)c2cn(C)c3ccccc23)cc1 (stereo not drawn)
596 s	Cc1ccc2cc(CCC(=O)NCCc3ccccn3)c(=O)[nH]c2c1
752 s	O=C(Cn1c(=O)c2cc(C3CC3)nn2c2ncccc21)Nc1ccccc1

RP-LC retention time	Structure (SMILES)
997 s	CCOc1ccc(S(=O)(=O)N2CCC(C(=O)NCCc3csc(-c4ccccc4)n3)CC2)cc1
765 s	CCc1nc2c(=O)n(CC(=O)N3CCN(c4ccccc4)CC3)nc(C)c2s1
657 s	CCn1nccc1-c1csc(S(=O)(=O)N2CCN(c3ccccn3)CC2)c1
591 s	CNC(=O)c1cc(N2CCCC2)nc2ccc(F)cc12
818 s	CC(Oc1ccccc1)C(=O)N1CCc2c(c(C(=O)NCc3ccc4c(c3)OCO4)nn2C)C1 (stereo not drawn)
1010 s	CC1(C)CC(=O)c2cn(-c3ccccc3)c(=O)c(C(=O)NC3CCCCC3)c2C1
888 s	O=C(NCCCn1cccc1)c1cc(-c2ccccc2)on1
714 s	O=C(NC1CCCCCC1)c1ccc(Cn2cncn2)cc1
674 s	Cc1cccc(C(=O)Nc2c(-c3ccccc3)nc3cc(C)ccn23)c1
921 s	Cc1cccc2c(=O)n(C3CCN(S(=O)(=O)c4ccccc4)CC3)cnc12
955 s	CC(C)CCNC(=O)C1CCCN(c2nc3ccsc3c(=O)n2Cc2ccccc2)C1 (stereo not drawn)
581 s	Cc1ccc(C(=O)c2cnc3cc4c(cc3c2N2CCN(C)CC2)OCO4)cc1C
725 s	COc1ccc(-c2noc(C3CCCN3C(=O)c3cccnc3)n2)cc1 (stereo not drawn)
898 s	Cc1cccc(C(=O)Nc2ccc3c(c2)Sc2ncccc2C(=O)N3C(C)C)c1
776 s	O=C(NC1CCCC1)c1ccc2ccnc(N3CCN(c4ccccc4)CC3)c2c1
777 s	Cn1ncc(NC(=O)c2ccccc2F)c(N2CCOCC2)c1=O
723 s	COc1cc(NC(=O)N2CCN(c3ccc(=O)n(-c4ccc(F)cc4)n3)CC2)cc(OC)c1OC
714 s	COc1ccc(-c2cc(N3CCN(C(=O)c4cccs4)CC3)n[nH]2)cc1

More lines, now with the values behind:

Structure (SMILES)	RP-LC retention time
Cc1ccc(NC(=O)Cn2nc3cc(-c4ccccc4)nc(C)n3c2=O)c(C)c1	985 s
O=[N+]([O-])c1ccc(-c2cn3ccccc3n2)cc1	598 s
COc1ccc(-c2cn3c(CC(=O)Nc4ccc(F)cc4)csc3n2)cc1OC	729 s
CC(C)(C)c1ccccc1OCC(=O)Nc1nc(-c2ccccc2)cs1	1320 s
COc1cc(O)c(C(=O)/C=C/c2ccccc2)c(OC)c1	1220 s
O=C1NC2(CCN(C(=O)Nc3ccc(Br)cc3)CC2)N=C1c1cccc(F)c1	893 s
Cc1noc(C)c1Cc1ccc(C(=O)N2CCC(c3nc(CCOCC4CC4)no3)C2)o1 (stereo not drawn)	784 s
CCCN1CCN(c2ncc3c(n2)CCN(Cc2cc(F)cc(F)c2)C3)CC1	549 s
CCN1CCC(N(Cc2ccc3c(c2)OCO3)C(=O)Nc2cc(Cl)ccc2C(=O)OC)CC1	774 s
O=C1CCCc2cc(S(=O)(=O)N3CCC(C(=O)N4CCC5(CC4)OCCO5)CC3)ccc2N1	662 s
Cc1cnc(CC2CCN(S(=O)(=O)Cc3ccccc3)C2)n1C(C)C (stereo not drawn)	663 s
Cc1ccc2c(NCc3ccc4c(c3)OCO4)c(-c3nc(C)no3)cnc2n1	1070 s
CC(C)CCN1CCC(N2CCN(CCc3ccccc3)CC2)C1=O (stereo not drawn)	565 s
Cc1ccc2c(c1)C(C)(C)C(=O)N2CC(=O)NCc1ccc(F)cc1	915 s
COc1ccccc1CCNS(=O)(=O)c1cc2c3c(c1)CCC(=O)N3CCC2	882 s
Cc1ccccc1C(=O)N1C(C(=O)NCC(C)C)COC12CCN(C(=O)C(C)(C)C)CC2 (stereo not drawn)	782 s
Cc1c(Cl)cccc1Nc1ncccc1C(=O)O	841 s
O=C(Oc1ccc2c(c1)O/C(=C\c1ccncc1)C2=O)c1ccc2c(c1)OCO2	725 s
COc1ccc(NC(=O)N2CCC(c3nc(C(=O)N(C)C)c(C)o3)CC2)cc1Cl	840 s
COc1cc2c(cc1OC)C(C(=O)NCCCN1CCN(C)CC1)C(c1cccs1)N(C)C2=O (stereo not drawn)	572 s
CCc1nc2cc(-c3noc(-c4sccc4C)n3)ccc2o1	1210 s
O=C(NCCc1nc(-c2ccc3c(c2)OCO3)n[nH]1)c1ccc(F)cc1Cl	692 s
Cc1cccc(-c2noc(Cn3c(=O)n(Cc4ccccc4Cl)c(=O)c4sccc43)n2)c1	1150 s
Cc1ccc(CNC(=O)C2CCCN(c3nnc(C)c4c(C)n(-c5ccc(C)cc5)nc34)C2)cc1 (stereo not drawn)	800 s
Cc1ccc(-c2noc(CSc3nccn3-c3ccc(C)cc3)n2)cc1	1020 s
Cn1ccnc1SCC(=O)c1ccc([N+](=O)[O-])cc1	549 s

Structure (SMILES)	RP-LC retention time
Cc1noc(C)c1-c1ccc(S(=O)(=O)Nc2ccc(F)c(F)c2)cc1	939 s
Cc1ccc(Nc2nccc(N(C)c3ccc4c(C)n(C)nc4c3)n2)cc1S(N)(=O)=O	685 s
Cc1ccccc1N1CC(C(=O)N(C)C)CC1=O (stereo not drawn)	628 s
CCn1cc(-c2nc(-c3cc(OC)cc(OC)c3)no2)c(=O)c2cc(F)c(N3CCOCC3)cc21	957 s
CCc1cc(=O)n(CC(=O)Nc2ccc(OC)c(F)c2)c(N2CCOCC2)n1	719 s
CCCN(CC(=O)N(Cc1ccco1)CC1CCCO1)C(=O)c1ccccc1OC (stereo not drawn)	870 s
O=C(Nc1ccc(S(=O)(=O)Nc2nccs2)cc1)c1ccc([N+](=O)[O-])o1	641 s
O=C1c2ccccc2C(=O)N1CCSc1nnc2sc3ccccc3n12	696 s
O=C(c1csc(-c2ccc(N3CCOCC3)nc2)n1)N1CCOCC1	626 s
COc1ccc(-c2noc(CSc3nc4cc5c(cc4c(=O)n3CC3CCCO3)OCO5)n2)cc1 (stereo not drawn)	1090 s
Cc1c(Cl)cccc1Nc1ccccc1C(=O)O	1060 s
CCCN1C(=O)C(CC(=O)N(C)C)Sc2ncccc21 (stereo not drawn)	655 s
O=C(NC1CC1)[C@@H]1C[C@H](Oc2cccnc2)CN1C(=O)C1CCC1	557 s
Cc1cc(C)cc(-c2nnc(Cc3nc(-c4ccccc4C)no3)o2)c1	1200 s
Cc1cnc(C2CN(Cc3ccc(C(F)(F)F)cc3)C2)n1Cc1ccccc1	639 s
COC(=O)c1sccc1NC(=O)N1CCCn2nc(-c3ccc(OC)cc3)cc2C1	970 s
COc1ccc(-c2nnc(-c3ccccc3Cl)o2)cc1S(=O)(=O)N1CCCC1	969 s
CCOc1ccc(C2Cn3nnc(-c4nc(-c5ccccc5Br)no4)c3CO2)cc1 (stereo not drawn)	1230 s
CCOC(=O)CCNC(=O)N1CCCC(Cn2cnc3cccnc32)C1 (stereo not drawn)	604 s
COc1ccc(NC(=O)CCS(=O)(=O)Cc2ccccc2)c2ccccc12	688 s
Cc1nn(C)c(C)c1S(=O)(=O)N1CCCC(OCc2noc(C3CCOCC3)n2)C1 (stereo not drawn)	716 s
CC(C)Cn1c(=O)c(C(=O)NCc2cccnc2)nc2cccnc21	613 s
Cc1nc(-c2cc(S(=O)(=O)N3CCC(C(=O)NCc4ccco4)CC3)c(C)s2)no1	837 s
CCCc1noc(-c2ccc3nnc(CC(=O)N4CCSCC4)n3c2)n1	755 s
COc1cccc(-c2nc3sc(C(=O)N(C)C)c(C)n3c2NC(C)(C)C)c1	773 s
CCOC(=O)c1c(N)ssc1=S	786 s
